Consider 61 compounds from patent US20040110802A1, “Antibacterial benzoic acid derivatives” (priority 2002, published 2004).

The MIC is the lowest concentration found to suppress growth.

In brackets after ≈: the same amount, converted by molar mass. A value given as a limit tells only on which side of the number the result lay.

The experiment relates to SAUR 9218. The experiment can be described thus: MIC Test Method, standard agar dilution. The experiment is classed as cell-based. The conditions noted are these: agar dilution, Mueller Hinton agar, incubated overnight at 35° C.; lowest concentration that inhibits visible growth; read-out: SAUR 9218 MIC. An outline of the steps: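 Agar dilution in Mueller Hinton agar with serial 2-fold compound dilutions. Staphylococcus aureus strain 9218 spotted at approximately 10^4 to 10^5 cells per spot, incubated overnight at 35 °C; MIC (μg/ml) is the lowest concentration preventing visible growth.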
For orientation: In agar dilution the substance is mixed into plates at graded concentrations.

As for `O=C(Nc1ccc(Br)cc1C(=O)O)c1csc(S(=O)(=O)N2CC3CC2CN3Cc2ccccc2)c1` (stereo not shown), the MIC was > 128 µg/mL.

For `Cc1c(S(=O)(=O)N2CC3CC2CN3Cc2ccccc2)csc1C(=O)Nc1ccc(Br)cc1C(=O)O` (stereo not shown), the MIC is > 128 µg/mL.

For `Cc1sc(C(=O)Nc2ccc(Br)cc2C(=O)O)cc1S(=O)(=O)N1CC2CC1CN2Cc1ccccc1` (stereo not shown), the MIC was determined as 16 µg/mL (≈ 27.1 µM).

As for `O=C(Nc1ccc(Br)cc1C(=O)O)c1ccco1`, the MIC is > 128 µg/mL.

Regarding `O=C(Nc1ccc(Br)cc1C(=O)O)c1ccc(Br)o1`, the MIC was 64 µg/mL (≈ 165 µM).

Regarding `COc1ccccc1-c1cc(C(=O)Nc2ccc(Br)cc2C(=O)O)no1`, the MIC is 0.125 µg/mL (≈ 0.3 µM).

As to `O=C(Nc1ccc(Cl)cc1C(=O)O)c1cc(CCCC2CCCCC2)on1`, the MIC worked out at 4 µg/mL (≈ 10.2 µM).

With `O=C(Nc1ccc(Cl)cc1C(=O)O)c1cc(CCCc2ccccc2)on1`, the minimum inhibitory concentration (MIC) was 0.5 µg/mL (≈ 1.3 µM).

Take `COc1ccccc1-c1cc(C(=O)Nc2ccc(Cl)cc2C(=O)O)no1`: the MIC was 0.125 µg/mL (≈ 0.335 µM).

On to `CCCCC(C)Sc1ccc(C(=O)Nc2ccc(C#N)cc2C(=O)O)cn1` (stereo not shown), for which the MIC amounted to 0.125 µg/mL (≈ 0.326 µM).

Turning to `CCC(CC)Sc1ccc(C(=O)Nc2ccc(C#N)cc2C(=O)O)cn1`, the MIC turned out to be 0.25 µg/mL (≈ 0.677 µM).

With `O=C(Nc1ccc(Br)cc1C(=O)O)c1cc(-c2ccccc2Cl)on1`, the minimum inhibitory concentration (MIC) was found to be 0.125 µg/mL (≈ 0.296 µM).

As for `O=C(Nc1ccc(Br)cc1C(=O)O)c1cc(-c2ccccc2F)on1`, the MIC was determined as 0.5 µg/mL (≈ 1.23 µM).

In the case of `COc1cccc(-c2cnc(C(=O)Nc3ccc(Br)cc3C(=O)O)o2)c1`, the MIC worked out at 1 µg/mL (≈ 2.4 µM).

For `O=C(Nc1ccc(Br)cc1C(=O)O)c1ncc(-c2ccccc2C(F)(F)F)o1`, the MIC came to 1 µg/mL (≈ 2.2 µM).

`N#Cc1ccc(NC(=O)c2cc3cccc(NC(=O)c4ccc(Cl)nc4)c3[nH]2)c(C(=O)O)c1`: the MIC is 1 µg/mL (≈ 2.17 µM).

With `O=C(Nc1ccc(Cl)cc1C(=O)O)c1cc(-c2ccccc2F)on1`, the MIC stood at 0.25 µg/mL (≈ 0.693 µM).

Take `O=C(Nc1ccc(Cl)cc1C(=O)O)c1cc(-c2ccccc2Cl)on1`: the MIC is 0.5 µg/mL (≈ 1.33 µM).

In the case of `Cc1ccccc1-c1cc(C(=O)Nc2ccc(C#N)cc2C(=O)O)no1`, the MIC turned out to be 0.25 µg/mL (≈ 0.72 µM).

Consider `CC(C)[Si](c1cc(C(=O)Nc2ccc(C#N)cc2C(=O)O)no1)(C(C)C)C(C)C`, for which the minimum inhibitory concentration (MIC) amounted to 0.5 µg/mL (≈ 1.21 µM).

For `N#Cc1ccc(NC(=O)c2cc3cccc(NC(=O)c4ccno4)c3[nH]2)c(C(=O)O)c1`, the MIC amounted to 2 µg/mL (≈ 4.82 µM).

Take `N#Cc1ccc(NC(=O)c2cc3cccc(NC(=O)c4ccc(F)cc4F)c3[nH]2)c(C(=O)O)c1`: the MIC stood at 1 µg/mL (≈ 2.17 µM).

Take `CC(=O)Nc1cccc2cc(C(=O)Nc3ccc(C#N)cc3C(=O)O)[nH]c12`: the MIC was determined as 2 µg/mL (≈ 5.52 µM).

For `N#Cc1ccc(NC(=O)c2cc3cccc(NC(=O)Cc4ccc(Cl)cc4)c3[nH]2)c(C(=O)O)c1`, the MIC stood at 0.25 µg/mL (≈ 0.529 µM).

For `COc1ccc(CC(=O)Nc2cccc3cc(C(=O)Nc4ccc(C#N)cc4C(=O)O)[nH]c23)cc1`, the MIC was determined as 0.25 µg/mL (≈ 0.534 µM).

For the compound `N#Cc1ccc(NC(=O)c2cc3cccc(NC(=O)CC4CCCC4)c3[nH]2)c(C(=O)O)c1`, the MIC turned out to be 1 µg/mL (≈ 2.32 µM).

As for `N#Cc1ccc(NC(=O)c2cc3cccc(NC(=O)c4cccc(F)c4)c3[nH]2)c(C(=O)O)c1`, the MIC was found to be 0.5 µg/mL (≈ 1.13 µM).

Consider `N#Cc1cccc(C(=O)Nc2cccc3cc(C(=O)Nc4ccc(C#N)cc4C(=O)O)[nH]c23)c1`, for which the MIC came out at 1 µg/mL (≈ 2.23 µM).

With `N#Cc1ccc(NC(=O)c2cc3cccc(NC(=O)C4CCCCC4)c3[nH]2)c(C(=O)O)c1`, the MIC was found to be 2 µg/mL (≈ 4.65 µM).

With `CCC(=O)Nc1cccc2cc(C(=O)Nc3ccc(C#N)cc3C(=O)O)[nH]c12`, the MIC is 2 µg/mL (≈ 5.31 µM).

As to `COC(=O)CCCC(=O)Nc1cccc2cc(C(=O)Nc3ccc(C#N)cc3C(=O)O)[nH]c12`, the MIC came out at 0.5 µg/mL (≈ 1.11 µM).

Consider `CCCC(=O)Nc1cccc2cc(C(=O)Nc3ccc(C#N)cc3C(=O)O)[nH]c12`, for which the minimum inhibitory concentration (MIC) stood at 2 µg/mL (≈ 5.12 µM).

Regarding `N#Cc1ccc(NC(=O)c2cc3cccc(NC(=O)c4ccc(Br)cc4)c3[nH]2)c(C(=O)O)c1`, the minimum inhibitory concentration (MIC) worked out at 0.25 µg/mL (≈ 0.497 µM).

As for `N#Cc1ccc(NC(=O)c2cc3cccc(NC(=O)CCc4ccccc4)c3[nH]2)c(C(=O)O)c1`, the MIC amounted to 0.5 µg/mL (≈ 1.11 µM).

Take `N#Cc1ccc(NC(=O)c2cc3cccc(NC(=O)COc4ccccc4)c3[nH]2)c(C(=O)O)c1`: the minimal inhibitory concentration (MIC) is 0.5 µg/mL (≈ 1.1 µM).

In the case of `N#Cc1ccc(NC(=O)c2cc3cccc(NC(=O)CCC4CCCC4)c3[nH]2)c(C(=O)O)c1`, the minimal inhibitory concentration (MIC) was 0.25 µg/mL (≈ 0.562 µM).

As to `COC(=O)CC(=O)Nc1cccc2cc(C(=O)Nc3ccc(C#N)cc3C(=O)O)[nH]c12`, the MIC stood at 4 µg/mL (≈ 9.52 µM).

As for `CCCCC(CC)C(=O)Nc1cccc2cc(C(=O)Nc3ccc(C#N)cc3C(=O)O)[nH]c12` (stereo not shown), the MIC came out at 0.5 µg/mL (≈ 1.12 µM).

As to `COc1ccc(CC(=O)Nc2cccc3cc(C(=O)Nc4ccc(C#N)cc4C(=O)O)[nH]c23)cc1OC`, the MIC was found to be 1 µg/mL (≈ 2.01 µM).

As to `CC(CC(=O)Nc1cccc2cc(C(=O)Nc3ccc(C#N)cc3C(=O)O)[nH]c12)CC(C)(C)C` (stereo not shown), the minimal inhibitory concentration (MIC) was determined as 0.5 µg/mL (≈ 1.09 µM).

Turning to `N#Cc1ccc(NC(=O)c2cc3cccc(NC(=O)C4CC4)c3[nH]2)c(C(=O)O)c1`, the MIC was determined as 1 µg/mL (≈ 2.57 µM).

As to `COCC(=O)Nc1cccc2cc(C(=O)Nc3ccc(C#N)cc3C(=O)O)[nH]c12`, the MIC was found to be 4 µg/mL (≈ 10.2 µM).

As to `CC(C)CC(=O)Nc1cccc2cc(C(=O)Nc3ccc(C#N)cc3C(=O)O)[nH]c12`, the MIC was determined as 2 µg/mL (≈ 4.95 µM).

Consider `CCCCC(=O)Nc1cccc2cc(C(=O)Nc3ccc(C#N)cc3C(=O)O)[nH]c12`, for which the MIC came out at 0.5 µg/mL (≈ 1.24 µM).

Turning to `CC12CCC(C(=O)Nc3cccc4cc(C(=O)Nc5ccc(C#N)cc5C(=O)O)[nH]c34)(OC1=O)C2(C)C` (stereo not shown), the MIC came out at 8 µg/mL (≈ 16 µM).

On to `N#Cc1ccc(NC(=O)c2cc3cccc(NC(=O)C(Cl)c4ccccc4)c3[nH]2)c(C(=O)O)c1` (stereo not shown), for which the MIC was determined as 0.125 µg/mL (≈ 0.264 µM).

Take `N#Cc1ccc(NC(=O)c2cc3cccc(NC(=O)COCc4ccccc4)c3[nH]2)c(C(=O)O)c1`: the MIC worked out at 1 µg/mL (≈ 2.13 µM).

As to `CCOC(=O)CC(=O)Nc1cccc2cc(C(=O)Nc3ccc(C#N)cc3C(=O)O)[nH]c12`, the MIC came to 0.5 µg/mL (≈ 1.15 µM).

In the case of `N#Cc1ccc(NC(=O)c2cc3cccc(NC(=O)C45CC6CC(CC(C6)C4)C5)c3[nH]2)c(C(=O)O)c1`, the MIC is 16 µg/mL (≈ 33.2 µM).

In the case of `CCCCCC(=O)Nc1cccc2cc(C(=O)Nc3ccc(C#N)cc3C(=O)O)[nH]c12`, the MIC turned out to be 0.5 µg/mL (≈ 1.19 µM).

With `N#Cc1ccc(NC(=O)c2cc3cccc(NC(=O)C4CC4c4ccccc4)c3[nH]2)c(C(=O)O)c1` (stereo not shown), the MIC is 0.5 µg/mL (≈ 1.08 µM).

In the case of `CCC(C(=O)Nc1cccc2cc(C(=O)Nc3ccc(C#N)cc3C(=O)O)[nH]c12)c1ccccc1` (stereo not shown), the minimum inhibitory concentration (MIC) is 0.5 µg/mL (≈ 1.07 µM).

`CCCCCCC(=O)Nc1cccc2cc(C(=O)Nc3ccc(C#N)cc3C(=O)O)[nH]c12`: the MIC worked out at 0.5 µg/mL (≈ 1.16 µM).

As for `CC(=O)OC(C(=O)Nc1cccc2cc(C(=O)Nc3ccc(C#N)cc3C(=O)O)[nH]c12)c1ccccc1` (stereo not shown), the minimal inhibitory concentration (MIC) is 1 µg/mL (≈ 2.01 µM).

With `N#Cc1ccc(NC(=O)c2cc3cccc(NC(=O)c4cccs4)c3[nH]2)c(C(=O)O)c1`, the MIC was found to be 0.25 µg/mL (≈ 0.581 µM).

For `CCC(C)C(=O)Nc1cccc2cc(C(=O)Nc3ccc(C#N)cc3C(=O)O)[nH]c12` (stereo not shown), the MIC was found to be 1 µg/mL (≈ 2.47 µM).

For `COC(=O)CCCCCCC(=O)Nc1cccc2cc(C(=O)Nc3ccc(C#N)cc3C(=O)O)[nH]c12`, the MIC is 1 µg/mL (≈ 2.04 µM).

As for `CCC(CC)C(=O)Nc1cccc2cc(C(=O)Nc3ccc(C#N)cc3C(=O)O)[nH]c12`, the MIC was determined as 1 µg/mL (≈ 2.39 µM).

With `CCCCCCCC(=O)Nc1cccc2cc(C(=O)Nc3ccc(C#N)cc3C(=O)O)[nH]c12`, the MIC was determined as 0.125 µg/mL (≈ 0.28 µM).

In the case of `N#Cc1ccc(NC(=O)c2cc3cccc(NC(=O)C4CCC4)c3[nH]2)c(C(=O)O)c1`, the MIC was 0.5 µg/mL (≈ 1.24 µM).

In the case of `N#Cc1ccc(NC(=O)c2cc3cccc(N4C(=O)c5ccccc5C4=O)c3[nH]2)c(C(=O)O)c1`, the MIC is 8 µg/mL (≈ 17.8 µM).
